Laboratory results from ChEMBL document CHEMBL1132127, “Thrombin inhibitors based on [5,5] trans-fused indane lactams” (Bioorg Med Chem Lett, 1999).

Assays:
[1] = molecular target: Prothrombin (Homo sapiens, UniProt P00734)
[2] = molecular target: Serine protease 1 (Homo sapiens, UniProt P07477)
[3] = molecular target: Coagulation factor X (Homo sapiens, UniProt P00742)
Description: Inhibition of activated Coagulation factor X

[4] = Half life time in human plasma; format: ADME, cell-free

Coagulation factor X, sequence (P00742 41-179 limits assumed): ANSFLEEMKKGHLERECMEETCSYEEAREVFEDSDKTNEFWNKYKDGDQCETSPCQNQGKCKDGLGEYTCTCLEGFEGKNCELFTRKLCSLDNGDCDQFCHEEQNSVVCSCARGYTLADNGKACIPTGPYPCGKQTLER
Coagulation factor X, sequence (P00742 235-488 limits assumed): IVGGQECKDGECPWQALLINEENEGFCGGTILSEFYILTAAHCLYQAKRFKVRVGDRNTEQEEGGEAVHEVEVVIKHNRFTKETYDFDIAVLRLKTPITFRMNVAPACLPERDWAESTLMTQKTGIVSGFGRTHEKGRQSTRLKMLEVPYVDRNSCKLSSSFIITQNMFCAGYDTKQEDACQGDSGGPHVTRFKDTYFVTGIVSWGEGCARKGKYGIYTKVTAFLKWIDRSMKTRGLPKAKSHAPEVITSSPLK
Serine protease 1, sequence (P07477 whole entry): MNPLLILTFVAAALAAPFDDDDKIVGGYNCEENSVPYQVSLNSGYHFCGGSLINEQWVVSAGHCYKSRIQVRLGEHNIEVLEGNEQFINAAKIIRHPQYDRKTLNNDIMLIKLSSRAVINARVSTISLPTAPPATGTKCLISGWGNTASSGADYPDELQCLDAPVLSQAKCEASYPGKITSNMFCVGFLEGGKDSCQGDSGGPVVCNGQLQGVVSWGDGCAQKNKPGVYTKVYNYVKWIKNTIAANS

SMILES | IC50 [1] | IC50 [2] | IC50 [3] | half-life [4]
CC(=O)O[C@@H]1CC[C@]2(C)C3CC[C@@]4(C)[C@H]5[C@@H](C[C@]4(C)C3=CCC2[C@]1(C)C(=O)O)OC(=O)[C@@H]5CC(=O)C=C(C)C (stereo partly drawn) | 4 µM | – | – | –
CCN(CC)C(=O)c1cccc(-c2ccc3c(c2)[C@@H]2[C@@H](CCCCC(=N)N)C(=O)N(S(=O)(=O)c4ccccc4)[C@H]2C3)c1 | 0.016 µM | 0.066 µM | 0.074 µM | –
CCN(CC)C(=O)c1cccc(-c2ccc3c(c2)[C@@H]2[C@@H](CCCCC(=N)N)C(=O)N(C(=O)N(C)C)[C@H]2C3)c1 | 11 µM | > 20 µM | > 20 µM | –
CCN(CC)C(=O)c1cccc(-c2ccc3c(c2)[C@@H]2[C@@H](CCCCC(=N)N)C(=O)N(CCCCCc4ccccc4)[C@H]2C3)c1 | 5 µM | > 50 µM | > 50 µM | –
N=C(N)CCCC[C@H]1C(=O)N[C@H]2Cc3ccccc3[C@@H]21 | > 200 µM | > 200 µM | > 200 µM | > 24 h
CCN(CC)C(=O)c1cccc(-c2ccc3c(c2)C[C@H]2[C@H]3[C@@H](CCCCC(=N)N)C(=O)N2CCCCCc2ccccc2)c1 | 5 µM | 8.4 µM | 26 µM | –
CCNC(=O)N1C(=O)[C@H](CCCCC(=N)N)[C@H]2c3cc(-c4cccc(C(=O)N(CC)CC)c4)ccc3C[C@@H]21 | 3 µM | > 100 µM | > 100 µM | –
CCN(CC)C(=O)c1cccc(-c2ccc3c(c2)[C@@H]2[C@@H](CCCCC(=N)N)C(=O)N(COC(C)=O)[C@H]2C3)c1 | 12 µM | 36 µM | 14 µM | –
N=C(N)CCCC[C@H]1C(=O)N(CCCCCc2ccccc2)[C@H]2Cc3ccccc3[C@H]12 | 13 µM | 9.7 µM | > 100 µM | –
COC(=O)CN1C(=O)[C@H](CCCCC(=N)N)[C@H]2c3ccccc3C[C@@H]21 | 43 µM | > 200 µM | > 200 µM | –
CCOP(=O)(OCC)N1C(=O)[C@H](CCCCC(=N)N)[C@H]2c3ccc(-c4cccc(C(=O)N(CC)CC)c4)cc3C[C@@H]21 | 3.2 µM | 1.7 µM | 20 µM | –

Further lines, results first:

IC50 [1] | IC50 [2] | IC50 [3] | half-life [4] | SMILES
0.38 µM | 8.3 µM | 9.9 µM | – | CCC(=O)N1C(=O)[C@H](CCCCC(=N)N)[C@H]2c3cc(-c4cccc(C(=O)N(CC)CC)c4)ccc3C[C@@H]21
0.016 µM | – | 0.12 µM | 24 h | CCN(CC)C(=O)c1cccc(-c2ccc3c(c2)C[C@H]2[C@H]3[C@@H](CCCCC(=N)N)C(=O)N2C(=O)OC)c1
0.66 µM | 0.62 µM | 3.6 µM | – | CCN(CC)C(=O)c1cccc(-c2ccc3c(c2)C[C@H]2[C@H]3[C@@H](CCCCC(=N)N)C(=O)N2C(=O)OCCCc2ccccc2)c1
0.13 µM | 2.3 µM | 3.7 µM | – | CCN(CC)C(=O)c1cccc(-c2ccc3c(c2)[C@@H]2[C@@H](CCCCC(=N)N)C(=O)N(C(=O)OCCCc4ccccc4)[C@H]2C3)c1
0.05 µM | 2.2 µM | 2.2 µM | 17 h | CCN(CC)C(=O)c1cccc(-c2ccc3c(c2)[C@@H]2[C@@H](CCCCC(=N)N)C(=O)N(C(=O)OC)[C@H]2C3)c1
